Test results as given in article PMC5218480 (PLoS ONE, 2017).

Test system: MV-4-11 cells
Assay: Gene expression microarray analysis (Affymetrix PrimeView) and GSEA
Format: cell-based, human
Design: RFU PODN (11730768_x_at) / Fold change /veh PODN (11730768_x_at) / RFU LINC00158 (11744669_a_at) / Fold change /veh LINC00158 (11744669_a_at) / RFU DUSP10 (11751237_a_at) / Fold change /veh DUSP10 (11751237_a_at) / RFU ID3 (11757404_x_at) / Fold change /veh ID3 (11757404_x_at) / RFU PLEKHG5 (11737974_s_at) / Fold change /veh PLEKHG5 (11737974_s_at) / RFU LRRC4B (11730491_at) / Fold change /veh LRRC4B (11730491_at) / RFU GIMAP4 (11747438_a_at) / Fold change /veh GIMAP4 (11747438_a_at) / RFU KRT8 (11758183_x_at) / Fold change /veh KRT8 (11758183_x_at) / RFU CNN1 (11734310_a_at) / Fold change /veh CNN1 (11734310_a_at) / RFU VPS37D (11726825_at) / Fold change /veh VPS37D (11726825_at) / RFU C10orf10 (11716522_x_at) / Fold change /veh C10orf10 (11716522_x_at) / RFU KIR2DL2 /// KIR2DL4 /// KIR2DL5A /// KIR2DL5B /// KIR2DS1 /// KIR2DS2 /// KIR2DS3 /// KIR2DS4 /// KIR3DL3 /// KIR3DL3 /// KIR3DS1 (11738374_at) / Fold change /veh KIR2DL2 /// KIR2DL4 /// KIR2DL5A /// KIR2DL5B /// KIR2DS1 /// KIR2DS2 /// KIR2DS3 /// KIR2DS4 /// KIR3DL3 /// KIR3DL3 /// KIR3DS1 (11738374_at) / RFU C1QL1 (11718748_at) / Fold change /veh C1QL1 (11718748_at) / RFU TMPRSS4 (11747572_a_at) / Fold change /veh TMPRSS4 (11747572_a_at) / RFU HAMP (11756126_x_at) / Fold change /veh HAMP (11756126_x_at) / RFU RNFT2 (11725882_a_at) / Fold change /veh RNFT2 (11725882_a_at) / RFU NR4A2 (11747474_a_at) / Fold change /veh NR4A2 (11747474_a_at) / RFU ABCC12 (11746883_a_at) / Fold change /veh ABCC12 (11746883_a_at) / RFU TMEM136 (11760407_x_at) / Fold change /veh TMEM136 (11760407_x_at) / RFU CLDN22 /// WWC2 (11732394_at) / Fold change /veh CLDN22 /// WWC2 (11732394_at) / RFU HLA-DPB1 (11760878_x_at) / Fold change /veh HLA-DPB1 (11760878_x_at) / RFU SPINT1 (11716480_a_at) / Fold change /veh SPINT1 (11716480_a_at) / RFU GAP43 (11754022_s_at) / Fold change /veh GAP43 (11754022_s_at) / RFU A4GNT (11735810_at) / Fold change /veh A4GNT (11735810_at) / RFU PRB3 (11715151_x_at) / Fold change /veh PRB3 (11715151_x_at) / RFU TUBB4B (11761932_at) / Fold change /veh TUBB4B (11761932_at) / RFU CAPN14 (11732068_a_at) / Fold change /veh CAPN14 (11732068_a_at) / RFU TMCC2 (11721928_a_at) / Fold change /veh TMCC2 (11721928_a_at) / RFU IRGQ (11745062_a_at) / Fold change /veh IRGQ (11745062_a_at) / RFU FAM174B (11720279_a_at) / Fold change /veh FAM174B (11720279_a_at) / RFU TMPRSS4 (11748680_a_at) / Fold change /veh TMPRSS4 (11748680_a_at) / RFU FAM212B (11763350_a_at) / Fold change /veh FAM212B (11763350_a_at) / RFU PLEKHG5 (11743358_a_at) / Fold change /veh PLEKHG5 (11743358_a_at) / RFU ZSCAN30 (11745921_a_at) / Fold change /veh ZSCAN30 (11745921_a_at) / RFU CMKLR1 (11741424_a_at) / Fold change /veh CMKLR1 (11741424_a_at) / RFU LOC101060620 /// MAPK8IP1 (11723275_at) / Fold change /veh LOC101060620 /// MAPK8IP1 (11723275_at) / RFU SPTSSB (11747773_x_at) / Fold change /veh SPTSSB (11747773_x_at) / RFU PRSS12 (11739890_at) / Fold change /veh PRSS12 (11739890_at) / RFU BIN1 (11741810_x_at) / Fold change /veh BIN1 (11741810_x_at) / RFU WNT11 (11732464_a_at) / Fold change /veh WNT11 (11732464_a_at) / RFU C10orf10 (11716521_a_at) / Fold change /veh C10orf10 (11716521_a_at) / RFU C5orf56 (11738089_at) / Fold change /veh C5orf56 (11738089_at) / RFU CYB561 (11721691_x_at) / Fold change /veh CYB561 (11721691_x_at) / RFU ANKRD19P (11752326_a_at) / Fold change /veh ANKRD19P (11752326_a_at) / RFU OR2T12 /// OR2T33 /// OR2T8 (11738714_s_at) / Fold change /veh OR2T12 /// OR2T33 /// OR2T8 (11738714_s_at) / RFU VCAN (11748164_a_at) / Fold change /veh VCAN (11748164_a_at) / RFU JSRP1 (11732532_at) / Fold change /veh JSRP1 (11732532_at) / RFU KRTAP10-11 (11738290_x_at) / Fold change /veh KRTAP10-11 (11738290_x_at) / RFU MYO3A (11730013_a_at) / Fold change /veh MYO3A (11730013_a_at) / RFU EBF3 (11725865_a_at) / Fold change /veh EBF3 (11725865_a_at) / RFU CAMK2N1 (11719241_x_at) / Fold change /veh CAMK2N1 (11719241_x_at) / RFU C5orf56 (11738088_a_at) / Fold change /veh C5orf56 (11738088_a_at) / RFU OLFML3 (11715873_a_at) / Fold change /veh OLFML3 (11715873_a_at) / RFU LOC100653217 /// NTM (11731650_a_at) / Fold change /veh LOC100653217 /// NTM (11731650_a_at) / RFU MAPK11 (11762145_a_at) / Fold change /veh MAPK11 (11762145_a_at) / RFU FIZ1 (11724087_x_at) / Fold change /veh FIZ1 (11724087_x_at) / RFU OASL (11726364_x_at) / Fold change /veh OASL (11726364_x_at) / RFU SOX15 (11748057_x_at) / Fold change /veh SOX15 (11748057_x_at) / RFU CD79A (11719716_a_at) / Fold change /veh CD79A (11719716_a_at) / RFU HIST1H1D (11736915_at) / Fold change /veh HIST1H1D (11736915_at) / RFU CASKIN2 (11723855_a_at) / Fold change /veh CASKIN2 (11723855_a_at) / RFU LOC730098 (11760151_x_at) / Fold change /veh LOC730098 (11760151_x_at) / RFU OR4N2 (11742367_at) / Fold change /veh OR4N2 (11742367_at) / RFU PRRT2 (11749266_a_at) / Fold change /veh PRRT2 (11749266_a_at) / RFU SNX32 (11753110_a_at) / Fold change /veh SNX32 (11753110_a_at) / RFU CDHR5 (11726645_a_at) / Fold change /veh CDHR5 (11726645_a_at) / RFU RCAN1 (11760418_a_at) / Fold change /veh RCAN1 (11760418_a_at) / RFU FAM167A (11723789_a_at) / Fold change /veh FAM167A (11723789_a_at) / RFU FAM26E (11764081_at) / Fold change /veh FAM26E (11764081_at) / RFU ISYNA1 (11749810_s_at) / Fold change /veh ISYNA1 (11749810_s_at) / RFU ACY1 (11761880_at) / Fold change /veh ACY1 (11761880_at) / RFU 11764098_at / Fold change /veh 11764098_at / RFU SAMD14 (11745864_x_at) / Fold change /veh SAMD14 (11745864_x_at) / RFU NPB (11741838_a_at) / Fold change /veh NPB (11741838_a_at) / RFU TMPRSS6 (11731388_a_at) / Fold change /veh TMPRSS6 (11731388_a_at) / RFU KRTAP10-2 (11738614_at) / Fold change /veh KRTAP10-2 (11738614_at) / RFU ARHGAP8 /// PRR5-ARHGAP8 (11727945_x_at) / Fold change /veh ARHGAP8 /// PRR5-ARHGAP8 (11727945_x_at) / RFU KRTAP5-7 /// NADSYN1 (11734609_at) / Fold change /veh KRTAP5-7 /// NADSYN1 (11734609_at) / RFU RASL12 (11751679_a_at) / Fold change /veh RASL12 (11751679_a_at) / RFU CDKN2B (11736163_a_at) / Fold change /veh CDKN2B (11736163_a_at) / RFU PRF1 (11729649_at) / Fold change /veh PRF1 (11729649_at) / RFU, ZNF638 /// ZNF638-IT1 / Fold change vs veh, ZNF638 /// ZNF638-IT1 / RFU, PANK3 / Fold change vs veh, PANK3 / RFU, SH3YL1 / Fold change vs veh, SH3YL1 / RFU, ZEB2 / Fold change vs veh, ZEB2 / RFU, NRIP1 / Fold change vs veh, NRIP1 / RFU, PTTG1IP / Fold change vs veh, PTTG1IP / RFU, CAPN2 / Fold change vs veh, CAPN2 / RFU, MED14 / Fold change vs veh, MED14 / RFU, SNORA58 / Fold change vs veh, SNORA58 / RFU, C1orf63 / Fold change vs veh, C1orf63 / RFU, LRRFIP1 / Fold change vs veh, LRRFIP1 / RFU, NDUFAF7 / Fold change vs veh, NDUFAF7 / RFU, SLC12A2 / Fold change vs veh, SLC12A2 / RFU, IBTK / Fold change vs veh, IBTK / RFU, ESF1 / Fold change vs veh, ESF1 / Fold change vs veh, TMEM50B / RFU, TAOK1 / Fold change vs veh, TAOK1 / RFU, ACBD3 / Fold change vs veh, ACBD3 / RFU, TMA16 / Fold change vs veh, TMA16 / RFU, RWDD3 / Fold change vs veh, RWDD3 / RFU, BCAT1 / Fold change vs veh, BCAT1 / RFU, EDEM3 / Fold change vs veh, EDEM3 / RFU, TMEM33 / Fold change vs veh, TMEM33 / RFU, WDR75 / Fold change vs veh, WDR75 / RFU, AHCTF1 / Fold change vs veh, AHCTF1 / RFU, TFRC / Fold change vs veh, TFRC / RFU, ZDHHC17 / Fold change vs veh, ZDHHC17 / RFU, NOM1 / Fold change vs veh, NOM1 / RFU, ARL8B / Fold change vs veh, ARL8B / RFU, ZBTB11 / Fold change vs veh, ZBTB11 / RFU, TAMM41 / Fold change vs veh, TAMM41 / RFU, KIAA1704 /// LOC100996395 / Fold change vs veh, KIAA1704 /// LOC100996395 / RFU, ING1 / Fold change vs veh, ING1 / RFU, TRMT61B / Fold change vs veh, TRMT61B / RFU, FUBP3 / Fold change vs veh, FUBP3 / RFU, TP53 / Fold change vs veh, TP53 / RFU, TNKS2 / Fold change vs veh, TNKS2 / RFU, ZFP14 / Fold change vs veh, ZFP14 / RFU, ACTR2 / Fold change vs veh, ACTR2 / RFU, PPP3R1 / Fold change vs veh, PPP3R1 / RFU, PIK3R1 / Fold change vs veh, PIK3R1 / RFU, HNRNPA1 / Fold change vs veh, HNRNPA1 / RFU, RNF170 / Fold change vs veh, RNF170 / RFU, ZNF28 / Fold change vs veh, ZNF28 / RFU, RNGTT / Fold change vs veh, RNGTT / RFU, OGT / Fold change vs veh, OGT / RFU, BRD1 / Fold change vs veh, BRD1 / RFU, MARS / Fold change vs veh, MARS / RFU, ZNF655 / Fold change vs veh, ZNF655 / RFU, FAHD1 / Fold change vs veh, FAHD1 / RFU, BDP1 / Fold change vs veh, BDP1 / RFU, LRRCC1 / Fold change vs veh, LRRCC1 / RFU, ARID1A / Fold change vs veh, ARID1A / RFU, ZNF146 / Fold change vs veh, ZNF146 / RFU, ZNF330 / Fold change vs veh, ZNF330 / RFU, GPN3 / Fold change vs veh, GPN3 / RFU, C9orf123 / Fold change vs veh, C9orf123 / RFU, N4BP2L2 / Fold change vs veh, N4BP2L2 / RFU, ARFIP1 / Fold change vs veh, ARFIP1 / RFU, FAM179B / Fold change vs veh, FAM179B / RFU, BCL10 / Fold change vs veh, BCL10 / RFU, UHRF1BP1L / Fold change vs veh, UHRF1BP1L / RFU, BET1 / Fold change vs veh, BET1 / RFU, CNOT2 / Fold change vs veh, CNOT2 / RFU, ZNF268 / Fold change vs veh, ZNF268 / Fold change vs veh, ZNF507 / RFU, DGCR2 / Fold change vs veh, DGCR2 / RFU, WDSUB1 / Fold change vs veh, WDSUB1 / Fold change vs veh, HSP90B1 /// MIR3652 / RFU, ADSS / Fold change vs veh, ADSS / RFU, GK / Fold change vs veh, GK / RFU, ZNF148 / Fold change vs veh, ZNF148 / RFU, TAF9 / Fold change vs veh, TAF9 / RFU, SLC1A5 / Fold change vs veh, SLC1A5 / RFU, SLMO2 / Fold change vs veh, SLMO2 / RFU, ABCC4 / Fold change vs veh, ABCC4 / RFU, LOC101060439 /// RAP1B / Fold change vs veh, LOC101060439 /// RAP1B / RFU, RFX7 / Fold change vs veh, RFX7 / RFU, GTPBP10 / Fold change vs veh, GTPBP10 / RFU, CNEP1R1 / Fold change vs veh, CNEP1R1 / RFU, BIVM-ERCC5 /// ERCC5 / Fold change vs veh, BIVM-ERCC5 /// ERCC5 / RFU, ILF3 / Fold change vs veh, ILF3 / RFU 11762660_at / Fold change /veh 11762660_at / RFU VCAN (11757783_s_at) / Fold change /veh VCAN (11757783_s_at) / RFU DDX43 (11728927_at) / Fold change /veh DDX43 (11728927_at) / RFU KRT8 (11758188_x_at) / Fold change /veh KRT8 (11758188_x_at) / RFU NKD1 (11759106_at) / Fold change /veh NKD1 (11759106_at) / RFU SRD5A1 (11742802_a_at) / Fold change /veh SRD5A1 (11742802_a_at) / RFU TPSAB1 /// TPSB2 (11721975_s_at) / Fold change /veh TPSAB1 /// TPSB2 (11721975_s_at) / RFU GSTM3 (11746129_a_at) / Fold change /veh GSTM3 (11746129_a_at) / RFU IL23R (11737362_x_at) / Fold change /veh IL23R (11737362_x_at) / RFU TMEM51 (11727254_a_at) / Fold change /veh TMEM51 (11727254_a_at) / RFU PIWIL2 (11732686_x_at) / Fold change /veh PIWIL2 (11732686_x_at) / RFU ORM1 (11744905_x_at) / Fold change /veh ORM1 (11744905_x_at) / RFU CCDC152 (11743942_at) / Fold change /veh CCDC152 (11743942_at) / RFU ECM1 (11717891_a_at) / Fold change /veh ECM1 (11717891_a_at) / RFU IL23R (11748794_a_at) / Fold change /veh IL23R (11748794_a_at) / RFU TNFAIP8L3 (11732012_x_at) / Fold change /veh TNFAIP8L3 (11732012_x_at) / RFU MBOAT4 (11741988_at) / Fold change /veh MBOAT4 (11741988_at) / RFU 11764193_at / Fold change /veh 11764193_at / RFU TMEM53 (11763286_at) / Fold change /veh TMEM53 (11763286_at) / RFU MAGEB2 (11727129_at) / Fold change /veh MAGEB2 (11727129_at) / RFU TMEM200A (11744735_a_at) / Fold change /veh TMEM200A (11744735_a_at) / RFU CCDC152 (11751479_a_at) / Fold change /veh CCDC152 (11751479_a_at) / RFU FAM211A (11726209_a_at) / Fold change /veh FAM211A (11726209_a_at) / RFU RGS16 (11746705_a_at) / Fold change /veh RGS16 (11746705_a_at) / RFU VCAN (11755009_s_at) / Fold change /veh VCAN (11755009_s_at) / RFU RHOB (11743442_s_at) / Fold change /veh RHOB (11743442_s_at) / RFU RGS16 (11720943_a_at) / Fold change /veh RGS16 (11720943_a_at) / RFU RGS16 (11720944_at) / Fold change /veh RGS16 (11720944_at) / RFU, VPS4B / Fold change vs veh, VPS4B / RFU, CREB1 / Fold change vs veh, CREB1 / RFU, DNAJC13 / Fold change vs veh, DNAJC13 / RFU, GNAQ / Fold change vs veh, GNAQ / RFU, CDK5R1 / Fold change vs veh, CDK5R1 / RFU, ZRANB3 / Fold change vs veh, ZRANB3 / RFU, CUL4A / Fold change vs veh, CUL4A / RFU, CCNY / Fold change vs veh, CCNY / RFU, UFL1 / Fold change vs veh, UFL1 / RFU, COG3 / Fold change vs veh, COG3 / RFU, DIAPH2 / Fold change vs veh, DIAPH2 / RFU, SKA2 / Fold change vs veh, SKA2 / RFU, AFF3 / Fold change vs veh, AFF3 / RFU, LMF1 / Fold change vs veh, LMF1 / RFU, IPO11 / Fold change vs veh, IPO11 / RFU, DFFB / Fold change vs veh, DFFB / RFU, FOXP1 / Fold change vs veh, FOXP1 / RFU, CARD8 / Fold change vs veh, CARD8 / RFU, STRN3 / Fold change vs veh, STRN3 / RFU, ADK / Fold change vs veh, ADK / RFU, RASSF2 / Fold change vs veh, RASSF2 / RFU, WIPF1 / Fold change vs veh, WIPF1 / RFU, LARP1B / Fold change vs veh, LARP1B / RFU, RASA1 / Fold change vs veh, RASA1 / RFU, RB1 / Fold change vs veh, RB1 / RFU, PPFIA1 / Fold change vs veh, PPFIA1 / RFU, MAT2A / Fold change vs veh, MAT2A / RFU, CCT5 / Fold change vs veh, CCT5 / RFU, WDR92 / Fold change vs veh, WDR92 / RFU, CUX1 / Fold change vs veh, CUX1 / RFU, TTC7A / Fold change vs veh, TTC7A / RFU, TMEM135 / Fold change vs veh, TMEM135 / RFU, DEPTOR / Fold change vs veh, DEPTOR / RFU, CPM / Fold change vs veh, CPM / RFU, DNAJB6 / Fold change vs veh, DNAJB6 / RFU, CACNA2D3 / Fold change vs veh, CACNA2D3 / RFU, DTX4 / Fold change vs veh, DTX4 / RFU, TFCP2 / Fold change vs veh, TFCP2 / RFU, GMCL1 /// GMCL1P1 / Fold change vs veh, GMCL1 /// GMCL1P1 / RFU, AEBP2 / Fold change vs veh, AEBP2 / RFU, SNHG1 /// SNORD22 /// SNORD25 /// SNORD26 /// SNORD27 /// SNORD28 /// SNORD29 /// SNORD31 / Fold change vs veh, SNHG1 /// SNORD22 /// SNORD25 /// SNORD26 /// SNORD27 /// SNORD28 /// SNORD29 /// SNORD31 / Fold change (Aza/veh), C12orf56 (ProbeSet 11735607_a_at) / Fold change (ACY-1035/veh), C12orf56 (ProbeSet 11735607_a_at) / Fold change (Aza/veh), FGFR1OP (ProbeSet 11751329_s_at) / Fold change (ACY-1035/veh), FGFR1OP (ProbeSet 11751329_s_at) / Fold change (Aza/veh), VPS36 (ProbeSet 11739960_a_at) / Fold change (ACY-1035/veh), VPS36 (ProbeSet 11739960_a_at) / RFU SYPL1 (11715823_x_at) / Fold change /veh SYPL1 (11715823_x_at) / RFU IGFBP7 (11715501_s_at) / Fold change /veh IGFBP7 (11715501_s_at) / RFU REEP3 (11722064_at) / Fold change /veh REEP3 (11722064_at) / RFU IGLL1 (11728026_x_at) / Fold change /veh IGLL1 (11728026_x_at): dose or concentration left out as unconfirmed
Details: MV-4-11 cells, 48 hours

**Q.** With `Nc1ccc(-c2cccs2)cc1NC(=O)c1ccc2c(c1)cc(C1CC1)n2CCN1CCOCC1` [ACY-1035] as the compound, how does the “RFU REEP3 (11722064_at)” value read?
**A.** 19.86 RFU
